The text below walks through data of patent US6013647A, “Benzoxazinedione derivatives, method of producing them and uses thereof” (Gruenenthal GmbH, priority 1997, dated 2000).

Where a SMILES comes first, the peptide text is derived from it. [ ]: non-standard residue; d: D form. Orn(N5-OH,N5-Ac) = CC(=O)N(O)CCC[C@H](N)C(=O)O

One assay has as its system E. coli. To be noted: literature; cited from earlier work.
For the next assay, the system named is B. subtilis. The following applies: literature; cited from earlier work.
The conditions of assay [1]: e.g. thalassaemia; cited from earlier work.
The test system of a further assay is E. coli AB 2847. Description: Siderophore efficacy, growth promotion of indicator mutant (DIN 58 940). The following applies: test substances 5 μg/test plate. Type of assay: cell-based. From the text: (§1) The promotion of growth can be ascertained after the addition of the test substances as external siderophores. In the indicator mutants, the synthesis of the respective siderophores, e.g. pyoverdin, pyochelin, enterobactin, aerobactin or yersiniabactin, or the biosynthesis of aromatic compounds, is blocked, or there is a lack of receptors for enterobactin, pyochelin or pyoverdin and for other important components for the bacterial transport of iron (e.g. the membrane proteins Cir, Fiu, FepA and the TonB protein also). Under conditions where there is a lack of iron, these mutants therefore cannot grow or can only grow in a very retarded manner. In particular, the following indicator mutants were used: Pseudomonas aeruginosa PAO 6609, K 407, E. coli AB 2847, Salmonella typhimurium enb-7, TA 2700, and Yersinia enterocolitica WAH 5030. The controls used were ferrioxamine E for the Pseudomonas strains, ferrioxamine G for the Salmonella strains, and ferrichrome for the E. coli strains. The test substances were each employed in an amount of 5 μg/test plate.

In assay [2] the test system is Salmonella typhimurium enb-7. The assay is described as above. Type of assay: cell-based. To be noted: Salmonella enb-7; test substances 5 μg/test plate.
Excerpt: as §1

Assay [3] has as its system Salmonella typhimurium TA 2700. The description is as above. Type of assay: cell-based. The following applies: Salmonella TA 2700; test substances 5 μg/test plate.
Excerpt: as §1

Assay [4] concerns Pseudomonas aeruginosa PAO 6609. The assay is described as above. Type of assay: cell-based. To be noted: Pseud. aeruginosa PAO 6609; test substances 5 μg/test plate.
Excerpt: as §1

Assay [5] concerns Yersinia enterocolitica WAH 5030. The assay is described as above. It is filed as cell-based. To be noted: Y. enterocol. WAH 5030; test substances 5 μg/test plate.
Excerpt: as §1

With `O=C(N[C@@H](CO)C(=O)O)c1cccc(O)c1O` [N-(2,3-dihydroxybenzoyl)-L-serine], in the assay with E. coli, the siderophore activity result was “effective as a siderophore”.

`O=C(O)CNC(=O)c1cccc(O)c1O` [N-(2,3-dihydroxybenzoyl)glycine]: the siderophore activity result in the assay with B. subtilis is recorded as “siderophore for B. subtilis”.

As to `CC(=O)N(O)CCCCCNC(=O)CCC(=O)N(O)CCCCCNC(=O)CCC(=O)N(O)CCCCCN` [desferrioxamine B], in assay [1], the “use in diseases caused by an excess of iron” value was “successfully used in diseases which are caused by an excess of iron”.

Take `O=C(N[C@H]1COC(=O)[C@@H](NC(=O)c2cccc(O)c2O)COC(=O)[C@@H](NC(=O)c2cccc(O)c2O)COC1=O)c1cccc(O)c1O` [enterobactin]: in the assay with E. coli, the siderophore activity result is given as “siderophore for E. coli”.

Regarding `CC(=O)N([O-])CCC[C@@H]1NC(=O)CNC(=O)CNC(=O)CNC(=O)[C@H](CCCN([O-])C(C)=O)NC(=O)[C@H](CCCN([O-])C(C)=O)NC1=O.[Fe+3]` [ferrichrome, reference compound] (cyclo(GGG[Orn(N5-OH,N5-Ac)][Orn(N5-OH,N5-Ac)][Orn(N5-OH,N5-Ac)])), the “Growth areas (diameter) of siderophore indicator strain” value (shortened to “Growth areas (diameter)”) with E. coli AB 2847 turned out to be 23 mm.

Regarding `COC(=O)Oc1cccc2c(=O)n(CC(=O)O)c(=O)oc12` [substance 1, (8-methoxycarbonyloxy-2,4-dioxobenzoxazin-3-yl)-acetic acid], the “Growth areas (diameter)” value in the assay with E. coli AB 2847 came to 15 mm; in assay [2], 18 mm; in assay [3], 13 mm; in assay [4], 0 mm.

As to `COC(=O)Oc1cccc2c(=O)n(CC(=O)NCC(=O)O)c(=O)oc12` [substance 2, (8-methoxycarbonyloxy-2,4-dioxobenzoxazin-3-yl)-acetyl-glycine], the “Growth areas (diameter)” value with E. coli AB 2847 worked out at 10 mm; in assay [2] it was 22 mm; in assay [3], 21 mm; in assay [4] it was 13 mm.

On to `C[C@H](NC(=O)Cn1c(=O)oc2c(O)cccc2c1=O)C(=O)O` [substance 4, (8-hydroxy-2,4-dioxobenzoxazin-3-yl)-acetyl-L-alanine], for which the “Growth areas (diameter)” value was determined as 0 mm in the assay with E. coli AB 2847, 14 mm in assay [2], 0 mm in assay [3] and 0 mm in assay [4].

Regarding `COC(=O)Oc1cccc2c(=O)n([C@@H](C)C(=O)O)c(=O)oc12` [substance 7, 2-L-(8-methoxycarbonyloxy-2,4-dioxobenzoxazin-3-yl)-propionic acid], the “Growth areas (diameter)” value is reported as 0 mm in the assay with E. coli AB 2847, 10 mm in assay [2], 0 mm in assay [3] and 0 mm in assay [4].

Take `COC(=O)Oc1cccc2c(=O)n(N=Cc3ccc(C(=O)O)cc3)c(=O)oc12` [substance 9, 4-[(8-methoxycarbonyloxy-2,4-dioxobenzoxazin-3-yl-imino)-methyl]-benzoic acid]: the “Growth areas (diameter)” value worked out at 24 mm in the assay with E. coli AB 2847, 0 mm in assay [2], 16 mm in assay [3] and 0 mm in assay [4].

In the case of ferrioxamine E [reference compound], the “Growth areas (diameter)” value in assay [4] turned out to be 35 mm; in assay [5], 40 mm.

ferrioxamine G [reference compound]: the “Growth areas (diameter)” value in assay [2] came out at 38 mm; in assay [3], 20 mm.
